The source made the active and inactive calls. The calls are words filed in the database; no cut-off is given here.

The subject of assay [1] is SK-MEL-28. The experiment in a line: Inhibition of colony formation in human SK-MEL-28 cells at 6 uM incubated for 6 days by crystal violet staining based analysis. The assay is classed as functional. Particulars: SK-MEL-28, 144 h, time 6 day.
Assay [2] deals with B16-F10. The experiment in a line: Antitumor activity against mouse B16-F10 cells implanted in C57BL/6 mouse assessed as inhibition of tumor growth at 40 mg/kg, ip administered once daily from 6 to 9 days and every alternate days till 18. Particulars: time 13.0 day. The assay is classed as functional, organism-based.
The subject of assay [3] is SK-MEL-28. The experiment in a line: Cytotoxicity against human SK-MEL-28 cells assessed as inhibition of cell growth incubated for 24 hrs by resazurin staining based analysis. The assay is classed as functional. The conditions noted are these: SK-MEL-28, 24 h.
The test system of assay [4] is SK-MEL-28. Put plainly: Inhibition of cell migration in human SK-MEL-28 cells at 1 uM incubated for 24 hrs by wound healing assay. The class given is functional, cell-based.
Assay [5] deals with B16-F10. Put plainly: Inhibition of colony formation in mouse B16-F10 cells at 3 uM incubated for 6 days by crystal violet staining based analysis. The class given is functional. Particulars: B16-F10, 144 h, time 6 day.
Assay [6] has as its system B16-F10. Put plainly: Induction of apoptosis in mouse B16-F10 cells at 8 uM measured for 24 hrs by Annexin V FITC/PI staining based flow cytometry analysis. The assay is classed as functional, cell-based. A general note: A flow cytometer gives signals particle by particle.
In assay [7] the test system is SK-MEL-28. Put plainly: Downregulation of ACTB level in human SK-MEL-28 cells at 2 uM measured for 24 hrs by qRT-PCR analysis. The class given is functional, cell-based. (In general: Real-time PCR tracks product formation cycle by cycle.)
Assay [8] relates to SK-MEL-28. The experiment in a line: Induction of cell cycle arrest in human SK-MEL-28 cells assessed as accumulation of cells at G2/M phase at 3 uM incubated for 24 hrs by PI staining based flow cytometry analysis. The assay is classed as functional.
The test system of the next assay is LOX IMVI. The experiment in a line: Cytotoxicity against human LOX IMVI cells assessed as inhibition of cell growth incubated for 24 hrs by resazurin staining based analysis. The assay is classed as functional. A general note: Resazurin is reduced to fluorescent resorufin, in cell work by metabolically active cells.
Assay [9] deals with SK-MEL-28. The experiment in a line: Inhibition of colony formation in human SK-MEL-28 cells at 6 uM incubated for 8 days by crystal violet staining based analysis. Particulars: SK-MEL-28, 192 h, time 8 day. The assay is classed as functional.
For assay [10], the system named is B16-F10. The experiment in a line: Inhibition of cell migration in mouse B16-F10 cells at 2 uM incubated for 24 hrs by wound healing assay. The class given is functional, cell-based.
Assay [11] has as its system SK-MEL-28. Put plainly: Inhibition of colony formation in human SK-MEL-28 cells at 3 uM incubated for 6 days by crystal violet staining based analysis. The conditions noted are these: SK-MEL-28, 144 h, time 6 day. The class given is functional.
Assay [12] concerns SK-MEL-28. Put plainly: Inhibition of colony formation in human SK-MEL-28 cells at 3 uM incubated for 8 days by crystal violet staining based analysis. The assay is classed as functional. Particulars: SK-MEL-28, 192 h, time 8 day.
The subject of assay [13] is B16-F10. The experiment in a line: Antitumor activity against mouse B16-F10 cells implanted in C57BL/6 mouse assessed as reduction of tumor weight at 40 mg/kg, ip administered once daily from 6 to 9 days and every alternate days till 18. The class given is functional, organism-based. Particulars: time 13.0 day.
A further assay has as its system SK-MEL-5. The experiment in a line: Cytotoxicity against human SK-MEL-5 cells assessed as inhibition of cell growth incubated for 24 hrs by resazurin staining based analysis. Particulars: SK-MEL-5, 24 h. The class given is functional.
Assay [14] relates to B16-F10. Put plainly: Inhibition of colony formation in mouse B16-F10 cells at 6 uM incubated for 6 days by crystal violet staining based analysis. The assay is classed as functional. Particulars: B16-F10, 144 h, time 6 day.
Another assay deals with SK-MEL-25. Put plainly: Cytotoxicity against human SK-MEL-25 cells assessed as inhibition of cell growth incubated for 24 hrs by resazurin staining based analysis. The assay is classed as functional. Particulars: SK-MEL-25, 24 h.
Assay [15] relates to SK-MEL-28. Put plainly: Inhibition of cell adhesion in human SK-MEL-28 cells at 1.5 uM incubated for 1.5 hrs. The class given is functional, cell-based.
Assay [16] deals with B16-F10. Put plainly: Inhibition of cell adhesion in mouse B16-F10 cells assessed as reduction in number of adherent cells incubated for 1.5 hrs. The class given is functional, cell-based.
For assay [17], the system named is B16-F10. The experiment in a line: Cytotoxicity against mouse B16-F10 cells assessed as inhibition of cell growth incubated for 24 hrs by resazurin staining based analysis. The class given is functional. Particulars: B16-F10, 24 h.
In assay [18] the test system is SK-MEL-28. The experiment in a line: Inhibition of cell adhesion in human SK-MEL-28 cells assessed as reduction in number of adherent cells incubated for 1.5 hrs. The assay is classed as functional, cell-based.
The subject of assay [19] is B16-F10. Put plainly: Inhibition of cell adhesion in mouse B16-F10 cells at 1.5 uM incubated for 1.5 hrs. The class given is functional, cell-based.

For the molecule `C#C[C@]1(O)CC[C@H]2[C@@H]3CC=C4c5sc(Nc6ccc(F)cc6F)nc5CC[C@]4(C)[C@H]3CC[C@@]21C`, the inhibition at 6 µM with SK-MEL-28 [1], in the assay on SK-MEL-28 [9] and in the assay on B16-F10 [14] was 100% each time. In addition, the TGI entry with B16-F10 [2] is “Active”. The IC50 (in general, the concentration that inhibits the measured activity by half) was 1800 nM in the assay with SK-MEL-28 [3]; 1600 nM with LOX IMVI; 1900 nM in the assay with SK-MEL-5; 2400 nM in the assay with SK-MEL-25; 2500 nM with B16-F10 [17]. Besides, the inhibition entry with SK-MEL-28 [4], with B16-F10 [10], in the assay on SK-MEL-28 [15], in the assay on B16-F10 [16], in the assay with SK-MEL-28 [18] and with B16-F10 [19] was “Active” each time. The inhibition at 3 µM in the assay on B16-F10 [5], in the assay with SK-MEL-28 [11] and in the assay with SK-MEL-28 [12] was 100% throughout. Also, the outcome in the assay on B16-F10 [6], with SK-MEL-28 [7], in the assay on SK-MEL-28 [8] and in the assay with B16-F10 [13] was Active.

These data come from ChEMBL document CHEMBL6182831, “Thiazole-fused androstenone and ethisterone derivatives: potent β- and γ-actin cytoskeleton inhibitors to treat melanoma tumors” (RSC Med Chem, 2025).
